Data as given in US9328099B2, “Cyanomethylpyrazole carboxamides as janus kinase inhibitors” (Merck Sharp & Dohme Corp., priority 2011, dated 2016).
Where two headings read alike, the source gives them in different places.

Legend:
[1] = target: JAK2 (Homo sapiens (Human), UniProt O60674); experiment: Jak Biochemical HTRF Assay, JAK2
Excerpt: (§1) Jak Biochemical HTRF Assay Protocol
(§2) Subsequent reagent additions employed an Agilent Bravo.

[2] = target: JAK1 (Homo sapiens (Human), UniProt P23458); experiment: Jak Biochemical HTRF Assay, JAK1; details: read-out: JAK1 IC50
Sequence of JAK1 (P23458 875-1153): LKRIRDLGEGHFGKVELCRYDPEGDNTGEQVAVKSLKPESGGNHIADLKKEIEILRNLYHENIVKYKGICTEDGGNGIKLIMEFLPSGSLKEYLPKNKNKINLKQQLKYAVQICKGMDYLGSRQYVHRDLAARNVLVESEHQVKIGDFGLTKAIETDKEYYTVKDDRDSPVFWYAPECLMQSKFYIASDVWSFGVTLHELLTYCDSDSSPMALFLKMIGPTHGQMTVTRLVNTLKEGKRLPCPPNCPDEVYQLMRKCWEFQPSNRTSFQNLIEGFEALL
Excerpt: as §1, §2

[3] = HTRF biochemical assay, GST-tagged catalytic domain, top concentration tested […]

Sequence of JAK2 (O60674 849-1124): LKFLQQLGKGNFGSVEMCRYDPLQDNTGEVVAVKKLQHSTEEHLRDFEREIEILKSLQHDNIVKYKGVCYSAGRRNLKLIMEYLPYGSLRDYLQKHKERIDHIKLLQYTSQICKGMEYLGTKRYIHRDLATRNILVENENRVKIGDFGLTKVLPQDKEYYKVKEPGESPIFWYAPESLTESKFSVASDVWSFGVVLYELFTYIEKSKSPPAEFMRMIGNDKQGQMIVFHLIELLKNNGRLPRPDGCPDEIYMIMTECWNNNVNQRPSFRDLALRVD

SMILES | IC50 [1, 3] | IC50 [2, 3] | IC50 [1] | IC50 [2]
COCC(C)(C)OC(=O)N1CCC(CC#N)(n2cc(C(N)=O)c(Nc3ccc(F)cc3)n2)CC1 [Example 28, 2-Methoxy-1,1-dimethylethyl 4-{4-carbamoyl-3-[(4-fluorophenyl)amino]-1H-pyrazol-1-yl}-4-(cyanomethyl)piperidine-1-carboxylate] | 74 nM | 4 nM |  | 
N#CCC1(n2cc(C(N)=O)c(Nc3ccc(F)cc3)n2)CCN(C(=O)OC2CCC2)CC1 [Example 30-4, cyclobutyl 4-(4-carbamoyl-3-(4-fluorophenylamino)-1H-pyrazol-1-yl)-4-(cyanomethyl)piperidine-1-carboxylate] | 33 nM | 0.9 nM |  | 
N#CCC1(n2cc(C(N)=O)c(Nc3ccc(F)cc3)n2)CCN(C(=O)OCC(F)F)CC1 [Example 30-7, 2,2-difluoroethyl 4-(4-carbamoyl-3-(4-fluorophenylamino)-1H-pyrazol-1-yl)-4-(cyanomethyl)piperidine-1-carboxylate] | 9 nM | 0.5 nM |  | 
CC1(COC(=O)N2CCC(CC#N)(n3cc(C(N)=O)c(Nc4ccc(F)cc4)n3)CC2)CC1 [Example 30-8, (1-methylcyclopropyl)methyl 4-(4-carbamoyl-3-(4-fluorophenylamino)-1H-pyrazol-1-yl)-4-(cyanomethyl)piperidine-1-carboxylate] | 72 nM | 1 nM |  | 
N#CCC1(n2cc(C(N)=O)c(Nc3ccc(F)cc3)n2)CCN(C(=O)OC(CF)CF)CC1 [Example 30-9, 1,3-difluoropropan-2-yl 4-(4-carbamoyl-3-(4-fluorophenylamino)-1H-pyrazol-1-yl)-4-(cyanomethyl)piperidine-1-carboxylate] | 5 nM | 0.3 nM |  | 
C[Si](C)(C)COC(=O)N1CCC(CC#N)(n2cc(C(N)=O)c(Nc3ccc(F)cc3)n2)CC1 [Example 30-10, (trimethylsilyl)methyl 4-(4-carbamoyl-3-(4-fluorophenylamino)-1H-pyrazol-1-yl)-4-(cyanomethyl)piperidine-1-carboxylate] |  |  | 745 nM | 21 nM
N#CCC1(n2cc(C(N)=O)c(Nc3ccc(F)cc3)n2)CCN(C(=O)OCC(F)(F)CO)CC1 [Example 30-11, 2,2-difluoro-3-hydroxypropyl 4-(4-carbamoyl-3-(4-fluorophenylamino)-1H-pyrazol-1-yl)-4-(cyanomethyl)piperidine-1-carboxylate] | 11 nM | 0.2 nM |  | 
N#CCC1(n2cc(C(N)=O)c(Nc3ccc(F)cc3)n2)CCN(C(=O)OCC2(O)CC2)CC1 [Example 30-13, (1-hydroxycyclopropyl)methyl 4-(4-carbamoyl-3-(4-fluorophenylamino)-1H-pyrazol-1-yl)-4-(cyanomethyl)piperidine-1-carboxylate] | 20 nM | 0.9 nM |  | 
N#CCC1(n2cc(C(N)=O)c(Nc3cncc(F)c3)n2)CCN(C(=O)OCC(F)F)CC1 [Example 30-15, 2,2-difluoroethyl 4-(4-carbamoyl-3-(5-fluoropyridin-3-ylamino)-1H-pyrazol-1-yl)-4-(cyanomethyl)piperidine-1-carboxylate] | 19 nM | 1 nM |  | 
N#CCC1(n2cc(C(N)=O)c(Nc3ccc(F)cc3)n2)CCN(C(=O)OCC2CC2)CC1 [Example 30-19, cyclopropylmethyl 4-{4-carbamoyl-3-[(4-fluorophenyl)amino]-1H-pyrazol-1-yl}-4-(cyanomethyl)piperidine-1-carboxylate] | 37 nM | 1 nM |  | 
COC(C)COC(=O)N1CCC(CC#N)(n2cc(C(N)=O)c(Nc3ccc(F)cc3)n2)CC1 (stereo not shown) [Example 30-24, 2-methoxypropyl 4-{4-carbamoyl-3-[(4-fluorophenyl)amino]-1H-pyrazol-1-yl}-4-(cyanomethyl)piperidine-1-carboxylate] | 96 nM | 4 nM |  | 
N#CCC1(n2cc(C(N)=O)c(Nc3ccc(F)cc3)n2)CCN(C(=O)OC2CCCOC2)CC1 (stereo not shown) [Example 30-25, tetrahydro-2H-pyran-3-yl 4-{4-carbamoyl-3-[(4-fluorophenyl)amino]-1H-pyrazol-1-yl}-4-(cyanomethyl)piperidine-1-carboxylate] | 120 nM | 4 nM |  | 
N#CCC1(n2cc(C(N)=O)c(Nc3ccnc(F)c3)n2)CCN(C(=O)OCC(F)F)CC1 [Example 30-27, 2,2-difluoroethyl 4-(4-carbamoyl-3-(2-fluoropyridin-4-ylamino)-1H-pyrazol-1-yl)-4-(cyanomethyl)piperidine-1-carboxylate] | 5 nM | 0.07 nM |  | 
CC(C)COC(=O)N1CCC(CC#N)(n2cc(C(N)=O)c(Nc3ccccc3)n2)CC1 [Example 30-28, 2-methylpropyl 4-[4-carbamoyl-3-(phenylamino)-1H-pyrazol-1-yl]-4-(cyanomethyl)piperidine-1-carboxylate] | 102 nM | 3 nM |  | 
N#CCC1(n2cc(C(N)=O)c(Nc3ccccc3)n2)CCN(C(=O)OC2CCCC2)CC1 [Example 30-30, cyclopentyl 4-[4-carbamoyl-3-(phenylamino)-1H-pyrazol-1-yl]-4-(cyanomethyl)piperidine-1-carboxylate] | 50 nM | 1 nM |  | 

Continued by falling IC50 [1, 3], values first:

IC50 [1, 3] | IC50 [2, 3] | SMILES | IC50 [1] | IC50 [2]
249 nM | 6 nM | CC(C)(C)COC(=O)N1CCC(CC#N)(n2cc(C(N)=O)c(Nc3ccccc3)n2)CC1 [Example 30-29, 2,2-dimethylpropyl 4-[4-carbamoyl-3-(phenylamino)-1H-pyrazol-1-yl]-4-(cyanomethyl)piperidine-1-carboxylate] |  | 
240 nM | 8 nM | CC1(COC(=O)N2CCC(CC#N)(n3cc(C(N)=O)c(Nc4ccc(F)cc4)n3)CC2)COC1 [Example 30-20, (3-methyloxetan-3-yl)methyl 4-{4-carbamoyl-3-[(4-fluorophenyl)amino]-1H-pyrazol-1-yl}-4-(cyanomethyl)piperidine-1-carboxylate] |  | 
145 nM | 6 nM | N#CCC1(n2cc(C(N)=O)c(Nc3ccc(F)cc3)n2)CCN(C(=O)OCC2CCOCC2)CC1 [Example 30-21, tetrahydro-2H-pyran-4-ylmethyl 4-{4-carbamoyl-3-[(4-fluorophenyl)amino]-1H-pyrazol-1-yl}-4-(cyanomethyl)piperidine-1-carboxylate] |  | 
123 nM | 5 nM | N#CCC1(n2cc(C(N)=O)c(Nc3ccc(F)cc3)n2)CCN(C(=O)OCC2CCOC2)CC1 (stereo not shown) [Example 30-22, tetrahydrofuran-3-ylmethyl 4-{4-carbamoyl-3-[(4-fluorophenyl)amino]-1H-pyrazol-1-yl}-4-(cyanomethyl)piperidine-1-carboxylate] |  | 
120 nM | 4 nM | N#CCC1(n2cc(C(N)=O)c(Nc3ccc(F)cc3)n2)CCN(C(=O)OCC2CCC2)CC1 [Example 30-5, cyclobutylmethyl 4-(4-carbamoyl-3-(4-fluorophenylamino)-1H-pyrazol-1-yl)-4-(cyanomethyl)piperidine-1-carboxylate] |  | 
96 nM | 2 nM | CC(C)(CO)OC(=O)N1CCC(CC#N)(n2cc(C(N)=O)c(Nc3ccc(F)cc3)n2)CC1 [Example 29, 1-Hydroxy-2-methylpropan-2-yl 4-{4-carbamoyl-3-[(4-fluorophenyl)amino]-1H-pyrazol-1-yl}-4-(cyanomethyl)piperidine-1-carboxylate] |  | 
96 nM | 3 nM | N#CCC1(n2cc(C(N)=O)c(Nc3ccnc(F)c3)n2)CCN(C(=O)OC2CCOCC2)CC1 [Example 30-17, tetrahydro-2H-pyran-4-yl 4-{4-carbamoyl-3-[(2-fluoropyridin-4-yl)amino]-1H-pyrazol-1-yl}-4-(cyanomethyl)piperidine-1-carboxylate] |  | 
44 nM | 2 nM | N#CCC1(n2cc(C(N)=O)c(Nc3ccc(F)cc3)n2)CCN(C(=O)OC2COC2)CC1 [Example 30-18, oxetan-3-yl 4-{4-carbamoyl-3-[(4-fluorophenyl)amino]-1H-pyrazol-1-yl}-4-(cyanomethyl)piperidine-1-carboxylate] |  | 
40 nM | 2 nM | COCC(C)OC(=O)N1CCC(CC#N)(n2cc(C(N)=O)c(Nc3ccc(F)cc3)n2)CC1 (stereo not shown) [Example 30-23, 1-methoxypropan-2-yl 4-{4-carbamoyl-3-[(4-fluorophenyl)amino]-1H-pyrazol-1-yl}-4-(cyanomethyl)piperidine-1-carboxylate] |  | 
38 nM | 0.9 nM | N#CCC1(n2cc(C(N)=O)c(Nc3ccc(F)cc3)n2)CCN(C(=O)OCC2CC2(F)F)CC1 (stereo not shown) [Example 30-6, (2,2-difluorocyclopropyl)methyl 4-(4-carbamoyl-3-(4-fluorophenylamino)-1H-pyrazol-1-yl)-4-(cyanomethyl)piperidine-1-carboxylate] |  | 
30 nM | 2 nM | C[C@@H](OC(=O)N1CCC(CC#N)(n2cc(C(N)=O)c(Nc3ccc(F)cc3)n2)CC1)C(F)(F)F [Example 30-14, (R)-1,1,1-trifluoropropan-2-yl 4-(4-carbamoyl-3-(4-fluorophenylamino)-1H-pyrazol-1-yl)-4-(cyanomethyl)piperidine-1-carboxylate] |  | 
28 nM | 0.8 nM | CC(OC(=O)N1CCC(CC#N)(n2cc(C(N)=O)c(Nc3ccc(F)cc3)n2)CC1)C(F)(F)F (stereo not shown) [Example 30-3, 1,1,1-trifluoropropan-2-yl 4-(4-carbamoyl-3-(4-fluorophenylamino)-1H-pyrazol-1-yl)-4-(cyanomethyl)piperidine-1-carboxylate] |  | 
15 nM | 0.3 nM | N#CCC1(n2cc(C(N)=O)c(Nc3ccc(F)cc3)n2)CCN(C(=O)OCC(F)(F)F)CC1 [Example 30-2, 2,2,2-trifluoroethyl 4-(4-carbamoyl-3-(4-fluorophenylamino)-1H-pyrazol-1-yl)-4-(cyanomethyl)piperidine-1-carboxylate] |  | 
8 nM | 0.2 nM | N#CCC1(n2cc(C(N)=O)c(Nc3ccnc(F)c3)n2)CCN(C(=O)OCC(F)(F)F)CC1 [Example 30-1, 2,2,2-Trifluoroethyl 4-{4-carbamoyl-3-[(2-fluoropyridin-4-yl)amino]-1H-pyrazol-1-yl}-4-(cyanomethyl)piperidine-1-carboxylate] |  | 
